Key:
Format in all cases: cell-based, human
HCT116 cells [1] = assay: Cell-in-cell structures (cellular cannibalism) by confocal microscopy of CMFDA/CMTMR-labelled cocultures; settings: for generation of cell-in-cell structures after supplementation with nucleotide: ATP or UTP supplementation, ROCK-dependent; for generation of cell-in-cell structures after TP53 inactivation in presence of inhibitor: TP53 inactivated by PFT-α, knockdown or knockout, 20 μM Y27632 or 100 μM z-VAD
Experimental: FIG. 1. Identification of TP53 as repressor of cellular cannibalism. (A) Schematic representation of experimental procedure used to evaluate the ability to tumor suppressive depletion to enhance cell in cell internalization. (B) Frequencies of cell-in-cell structures induced by depletion of tumor suppressive proteins in HCT116. After 48 hours of transfection indicated siRNA, colorectal HCT116 cells were stained with CMTMR and CMFDA cell trachers, mixed and cultured during 24 hours. Quantification of cell-in-cell structures induced by depletions of tumor suppressor proteins was realized by confocal microscopy. The frequencies of cell-in-cell structures were determined for at least 300 cells in 3 independent experiments (mean+/−s.e.m, p<0.001). (C) Detection of cell-in-cell structures induced by depletion of TP53, as visualized by confocal microscopy. […] Representative micrographs of xy (scale bar, 5 μm), xz (scale bar, 4 μm) and yz (scale bar, 1 μm) optical sections are shown. Images are representative of at least four independent experiments. (D) Representative micrographs of cell-in-cell structures showing that after depletion of TP53 by two specific siRNAs, (red) CMTR labeled HCT116 cells internalized (red) CMTR labeled HCT116 cells (noted R(R)) or (green) CMFDA labeled HCT116 cells (noted R(G)), and (green) CMFDA labeled HCT116 cells engulfed (red) CMTR labeled HCT116 cells (noted G(R)) or (green) CMFDA labeled HCT116 cells (noted G(G)) (scale, 5 μm). (E) Frequencies of cell-in-cell structures showing R(R), R(G), G(R) or G(G) cell internalization detected after depletion of TP53 by two distinct siRNAs (as compare to control). The frequencies of cell-in-cell structures were determined for at least 300 cells in 3 independent experiments (mean+/−s.e.m, p<0.001). (F) Cell-in-cell structures induced by 10 μM PFT-α, TP53 knockdown, or TP53 knockout in HCT116. Cell-in-cell structures were identified by b-catenin (white), CMFDA (green) and CMTMR (red) staining of internalizing HCT116 cells. Images are representative of at least four independent experiments (scale bar in a, 5 μm and scale bar in b 1 μm). (G) Frequencies of cell-in-cell structures induced by 10 μM PFT-α, TP53 knockdown, or TP53 knockout in HCT116 in presence or in absence of 20 μM of ROCK inhibitor (Y27632) or 100 μM of pan-caspase inhibitor (z-VAD). The frequencies of cell-in-cell structures were determined for at least 300 cells in 3 independent experiments (mean+/−s.e.m, p<0.001). (H) Detection of cell-in-cell structures in TP53 depleted human diploid fibroblasts strain WI38, as visualized by confocal microscopy. […] Representative micrographs of xy (scale bar, 5 μm), xz (scale bar, 4 μm) and yz (scale bar, 1 μm) optical sections are shown. Images are representative of at least four independent experiments. (1) Frequencies of cell-in-cell structures induced by depletion of TP53 in human diploid fibroblasts strain WI38. The frequencies of cell-in-cell structures were determined for at least 300 cells in 3 independent experiments (mean+/−s.e.m, p<0.001).
After inactivation of TP53 or Δ133TP53, primary human fibroblasts, primary human keratinocytes, colorectal carcinoma Tp53^+/+ HCT116 cells and pancreatic PANC813 cells were incubated during 24 hours in presence or in absence of indicated concentrations of the pharmacological inhibitor of purinergic P2Y2 receptor Kaempferol (Sigma), the pharmacological inhibitor of ROCK Y27632 (Sigma) or the pan-caspase inhibitor zVAD-fmk (100 uM, BD Biosciences), ATP, UTP and soluble apyrase used in indicated experiments were obtained from Sigma.
After 48 hours of transfection with specific indicated siRNA, cells were stained with 10 μM of 5-chloromethylfluorescein diacetate (Cell Tracker Green CMFDA, Invitrogen) or with 10 μM of 5-(and-6)-(((4-Chloromethyl)Benzoyl)Amino)Tetramethylrhodamine (CMTMR, Invitrogen) and cocultured for indicated time. […]

[2] = system: P2Y2 purinergic receptors; assay: P2Y2 expression by immunoblot; settings: HCT116 treated with 10 μM CDDP
caspase-3 = assay: Cleavage of caspase-3 by immunoblot; parameters: dose or concentration left out as unconfirmed; settings: cisplatin, positive control
Experimental: FIG. 7. Effects of TP53 inactivation on cellular cannibalism. (A) Detection of cell-in-cell structures induced by depletion of TP53, as visualized by confocal microscopy. […] Images are representative of at least four independent experiments. (B) Detection of cell-in-cell structures induced by depletion of TP53 by light microscopy. (C) Time-lapse imaging of cellular cannibalism detected after depletion of TP53 on HCT116 cells. After 48 hours of transfection with siRNA against TP53, cells were stained as previously described with CMFDA and CMTMR cell trackers and cocultured under time-lapse confocal videomicroscopy. Indicated numbers represent hours and minutes. […] After 48 hours of TP53 knockdown, cleavage of caspase-3 was analyzed by immunoblot. […] Mitotic events and cellular cannibalism were detected and recorded during approximately fifteen hours. […] ROCK activity was determined by detecting the phosphorylation of myosin light chain 2 on serine 19 (MLC2S19*). […] TP53 knocked down, or TP53 knocked out HCT116 cells were analyzed for MLC2S19*, MLC2 or TP53 by immunoblot. […] Tp53^−/+ and Tp53^−/− HCT116 cells are fixed and analyzed by electron microscopy. […] HCT116 cells were transfected with specific siRNAs for TP53 during 48 hours and expression of TP53 (H) or MLCS19* (I) were determined by immunoblots. […]

HCT116 cells [3] = assay: Release of ATP by ATP-dependent bioluminescence (Enliten ATP assay); settings: HCT116 treated with 10 μM CDDP
Experimental: FIG. 11. Extracellular ATP and purinergic receptor P2Y2 participate in cellular cannibalism. (A.) Detection of cellular cannibalism after cis-platinium (CDDP) or γ-irradiation (IR) treatment. After 24 hours treatment with 10 μM CDDP or irradiation (IR) with 4 grays, half cell population of colon carcinoma HCT116 cells were stained with green CMFDA cell tracker or with red CMTMR cell tracker and analyzed for cellular cannibalism by confocal microscopy after 24 hours of coculture in presence or in absence of 20 μM of ROCK inhibitor (YI27632) or 100 μM of pan-caspase inhibitor (zVAD). The frequencies of cannibal cells were determined for at least 300 cells in 3 independent experiments (mean+/−s.e.m, *p<0.001). (B-D) Detection of ATP release after stimulation with senescent-induced stresses. Release of ATP on HCT116 cells treated with 10 μM CDDP (B) or 4 gray γ-irradiation (IR) (B) Of depleted for p53 (C) or Δ133p53 (C) was determined 2 hours after the beginning of coculture using ATP-dependent bioluminescence in 3 independent experiments, (D) Effect of ROCK inhibitor on ATP release detected after p53 inactivation. Release of ATP was detected as previously described in presence or in absence of 20 μM of Y27632 (mean+/−s.e.m, *p<0.001). […] The frequencies of cell-in-cell structures were determined for at least 300 cells in 3 independent experiments (mean+/−s.e.m, *p<0.001). […]

Molecule: Cc1ccc(C(=O)Cn2c3c(sc2=N)CCCC3)cc1 [pifithrin-α]
- cell-in-cell structures induced by pharmacological inactivation of TP53 (HCT116 cells [1]; HCT116, 10 μM PFT-α, 24 hours coculture): induced cell-in-cell structures

Molecule: O=c1ccn([C@@H]2O[C@H](COP(=O)(O)OP(=O)(O)OP(=O)(O)O)[C@@H](O)[C@H]2O)c(=O)[nH]1 [UTP]
- generation of cell-in-cell structures after supplementation with nucleotide (HCT116 cells [1]; HCT116): strongly enhanced the ROCK-dependent generation of cell-in-cell structures

Molecule: Z-VAD-fmk
- generation of cell-in-cell structures after TP53 inactivation in presence of inhibitor (HCT116 cells [1]): not affected

Molecule: Nc1ncnc2c1ncn2C1OC(CO[P@SP3](=O)(O)O[P@SP3](=O)(O)O[P@SP3](=O)(O)O)C(O)C1O (stereo not drawn) [ATP, Adenosine-5′-triphosphate]
- generation of cell-in-cell structures after supplementation with nucleotide (HCT116 cells [1]; HCT116): strongly enhanced the ROCK-dependent generation of cell-in-cell structures

Molecule: N.N.[Cl][Pt][Cl] [cisplatin]
- expression of the P2Y2 purinergic receptors [2]: enhanced the expression of the P2Y2 purinergic receptors
- cleavage of caspase-3 (caspase-3): intense cleavage of caspase-3
- release of ATP (HCT116 cells [3]): released ATP shortly after treatments

Molecule: C[C@@H](N)[C@H]1CC[C@H](C(=O)Nc2ccncc2)CC1 [Y26732]
- generation of cell-in-cell structures after TP53 inactivation in presence of inhibitor (HCT116 cells [1]): prevented the generation of cell-in-cell structures

Molecule: apyrase
- cellular internalization induced by the depletion of TP53 or Δ133TP53 (HCT116 cells [1]; HCT116, different concentrations of apyrase): reduced cellular internalization

From patent publication US10969380B2, “Simultaneous detection of cannibalism and senescence as prognostic marker for cancer” (Institut Gustave-Roussy, priority 2012, dated 2021)
